Results published in patent publication EP1118615A1, “NOVEL SALTS OF PYRIDOPYRAZINE COMPOUND AND CRYSTALS THEREOF” (FUJISAWA PHARMACEUTICAL CO., LTD., priority 1998, dated 2000).
Counter-ions that a name gives are not always drawn. Like-named read-outs stand apart in the source and are kept apart here.

What was measured:
[1] = Changes in crystallinity upon compounding with ethanol; type: physicochemical
Text: (2) Changes in crystallinity upon compounding
For compound (I) and hydrochloride (B), changes in crystallinity upon compounding with ethanol were studied.

Hygroscopicity = type: physicochemical
Text: (§1) In the study on polymorphism of compound (I), six kinds of polymorphs (A01, A09, A16, A20, A30 and A43 crystals) were found. For each of those polymorphs, hygroscopicity, stability in solid state, solubility and changes in crystallinity on compounding with various solvents were studied. However, the A30 crystal was not studied since it contains ethanol.

physchem = conditions: thermodynamic from solid
[2] = methanesulfonate
Stability in solid state = type: physicochemical; parameters: Water content: unit not given here
Text: The crystallinity of hydrochloride was decreased when it was mixed with ethanol.
as §1
(2) Stability in solid state

[3] = distilled water for injection, water
[4] = physiological saline solution, saline or isotonic
[5] = Table 1, listed as Compound (I) (A01 crystal)
[6] = Table 4, room temperature, 30-min shaking
[7] = 70°C, 75% RH, 9 days, methanesulfonate

Compound: CS(=O)(=O)O.O=C(Nc1cccc(-n2c(=O)c(Cc3cccnc3)nc3cccnc32)c1)c1cc(Cl)cc(Cl)c1 [A01 crystal, 4-(3-(3,5-dichlorobenzoylamino)phenyl)-2-(3-pyridyl)methyl-3-oxo-3,4-dihydropyr ido[2,3-b]pyrazine methanesulfonate]
- Influence of compounding with ethanol on crystallinity ([1]; listed as Compound (I) (A01 crystal), methanesulfonate): No change (changed into in A16 crystal)
- Hygroscopicity (Hygroscopicity; listed as A01, methanesulfonate): less hygroscopic
- solubility (physchem; [3]): 637 µg/mL
- solubility (physchem; [4]): 43.9 µg/mL
- solubility at 30 min (physchem; [4]): 43.9 µg/mL
- Solubility, Distilled water for injection [2, 5]: improved
- Solubility, Physiological saline solution [2, 5]: improved
- Solubility, Distilled injection for injection [2, 6]: 637 µg/mL
- Crystal form (Stability in solid state; 70°C, 75% RH, 9 days): Unchanged
- % Residue (Stability in solid state; [7]): 99.9%
- Appearance (Stability in solid state; [7]): Yellowish white crystalline powder powder
- Water content (Stability in solid state; [7]): 4.76
- Crystal form (Stability in solid state; 70°C, 9 days): Unchanged
- Appearance (Stability in solid state; 70°C, 9 days, methanesulfonate): Yellowish white crystalline powder
- Water content (Stability in solid state; 70°C, 9 days, methanesulfonate): 4.23
- % Residue (Stability in solid state; Initial): 100.0%
- Appearance (Stability in solid state; Initial, methanesulfonate): Yellowish white crystalline powder
- Water content (Stability in solid state; Initial, methanesulfonate): 4.42

Compound: CS(=O)(=O)O.O=C(Nc1cccc(-n2c(=O)c(Cc3cccnc3)nc3cccnc32)c1)c1cc(Cl)cc(Cl)c1 [A20 crystal, 4-(3-(3,5-dichlorobenzoylamino)phenyl)-2-(3-pyridyl)methyl-3-oxo-3,4-dihydropyr ido[2,3-b]pyrazine methanesulfonate]
- Hygroscopicity (Hygroscopicity; listed as A20, methanesulfonate): less hygroscopic
- Solubility, Distilled injection for injection [2, 6]: 8.76 µg/mL
- Solubility, Physiological saline solution [2, 6]: 0.0645 mg/ml
- Crystal form (Stability in solid state; 70°C, 75% RH, 9 days): Unchanged
- % Residue (Stability in solid state; [7]): 101.0%
- Appearance (Stability in solid state; [7]): Pale yellowish white crystalline powder
- Water content (Stability in solid state; [7]): 1.22
- Crystal form (Stability in solid state; 70°C, 9 days): Unchanged
- % Residue (Stability in solid state; 70°C, 9 days, methanesulfonate): 99.6%
- Appearance (Stability in solid state; 70°C, 9 days, methanesulfonate): Pale yellowish white crystalline powder
- Water content (Stability in solid state; 70°C, 9 days, methanesulfonate): 0.30
- % Residue (Stability in solid state; Initial): 100.0%
- Appearance (Stability in solid state; Initial, methanesulfonate): Pale yellowish white white crystalline powder
- Water content (Stability in solid state; Initial, methanesulfonate): 0.41
- change in crystal form (Stability in solid state; heat and humidity, summary of Table 3): no change
- chemical stability against heat and humidity (Stability in solid state; summary of Table 3): chemically stable

Compound: CS(=O)(=O)O.O=C(Nc1cccc(-n2c(=O)c(Cc3cccnc3)nc3cccnc32)c1)c1cc(Cl)cc(Cl)c1 [Example A09, 4-(3-(3,5-dichlorobenzoylamino)phenyl)-2-(3-pyridyl)methyl-3-oxo-3,4-dihydropyrido[2,3-b]pyrazine methanesulfonate]
- Hygroscopicity (Hygroscopicity; methanesulfonate): highly hygroscopic

Compound: CS(=O)(=O)O.O=C(Nc1cccc(-n2c(=O)c(Cc3cccnc3)nc3cccnc32)c1)c1cc(Cl)cc(Cl)c1 [compound (I), 4-[3-(3,5-dichlorobenzoylamino)phenyl]-2-(3-pyridylmethyl)-3-oxo-3,4-dihydropyr ido[2,3-b]pyrazine methanesulfonate]
- Influence of compounding with ethanol on crystallinity ([1]; methanesulfonate): no change in crystallinity

Compound: O=C(Nc1cccc(-n2c(=O)c(Cc3cccnc3)nc3cccnc32)c1)c1cc(Cl)cc(Cl)c1 [free base (A), 4-[3-(3,5-dichlorobenzoylamino)phenyl]-2-(3-pyridylmethyl)-3-oxo-3,4-dihydropyr ido[2,3-b]pyrazine, reference compound]
- solubility (physchem; [3]): ≤ 1 µg/mL
- solubility (physchem; [4]): ≤ 1 µg/mL

Compound: O=C(Nc1cccc(-n2c(=O)c(Cc3cccnc3)nc3cccnc32)c1)c1cc(Cl)cc(Cl)c1 [hydrochloride (B), reference compound]
- Influence of compounding with ethanol on crystallinity ([1]; listed as Hydrochloride (B)): Crystallinity decreased
- Influence of compounding with ethanol on crystallinity ([1]; listed as hydrochloride): decreased
- residual amount (Stability in solid state; ethanol-compounded solid, 70°C for 9 days): 91%

Compound: O=C(Nc1cccc(-n2c(=O)c(Cc3cccnc3)nc3cccnc32)c1)c1cc(Cl)cc(Cl)c1.O=S(=O)(O)O [sulfate, 4-(3-(3,5-dichlorobenzoylamino)phenyl)-2-(3-pyridyl)methyl-3-oxo-3,4-dihydropyrido[2,3-b]pyrazine sulfate, reference compound]
- solubility (physchem; [3]): 29.5 µg/mL
- solubility (physchem; [4]): 38.9 µg/mL
